# Assay results taken from patent publication US8920334B2, “Method of breath analysis for determining liver capacity or microcirculation using 13C-labeled methacetin substrate” (Freie Universitaet Berlin, priority 2005, dated 2014).
# How the values were obtained:
# [1] = molecular target: T1, enzyme CYP1A2 in the liver (Homo sapiens, UniProt P05177); assay: 13C-methacetin breath test (LiMAx) before and after partial liver resection; type: in vivo; conditions: patients, mean
# T1 construct: demethylated to paracetamol in a rapid one-step reaction by the enzyme CYP1A2 in the liver; from tissue; host or cells: liver of living patients (in vivo)
# T1 sequence (P05177 1-516): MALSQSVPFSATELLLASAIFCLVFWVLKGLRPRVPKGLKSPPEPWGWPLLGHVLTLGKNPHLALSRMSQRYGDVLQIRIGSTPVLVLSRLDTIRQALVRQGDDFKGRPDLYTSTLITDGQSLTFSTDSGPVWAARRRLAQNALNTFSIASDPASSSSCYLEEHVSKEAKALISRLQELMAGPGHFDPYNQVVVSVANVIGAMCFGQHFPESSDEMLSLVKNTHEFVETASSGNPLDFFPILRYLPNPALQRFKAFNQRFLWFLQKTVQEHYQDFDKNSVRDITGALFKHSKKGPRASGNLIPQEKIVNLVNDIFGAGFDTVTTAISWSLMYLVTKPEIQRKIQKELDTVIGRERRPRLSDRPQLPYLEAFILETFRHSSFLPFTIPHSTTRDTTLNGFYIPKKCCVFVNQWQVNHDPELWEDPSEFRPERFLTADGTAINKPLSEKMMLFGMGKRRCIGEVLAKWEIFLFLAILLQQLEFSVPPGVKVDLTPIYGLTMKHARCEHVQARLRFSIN
# Experimental: This object is achieved by an analysis method, for determining a functional parameter of an organ of a human or animal individual. According to this analysis method, the ^13CO2 content in the air exhaled by the individual is measured, the ^13CO2 in the body of the individual being formed enzymatically from a substrate that has been administered beforehand to the individual, and then being exhaled by the individual. The measurement of the ^13CO2 content in the air exhaled by the individual is carried out using a suitable measurement device. The maximum reaction rate of the substrate in the body of the individual is determined via a change of the measured ^13CO2 content in the air exhaled by the individual using zero-order enzyme kinetics. The analysis method according to the invention therefore proceeds from a consideration of enzyme kinetics.
# In a particularly preferred embodiment of the invention, the maximum reaction rate (LiMAx) is calculated through the converted quantity of substrate per unit of time in μg/h/kg bodyweight at variable times at which the maximum value is reached, such that genuine quantification of the maximum functional liver capacity can be made. The calculation is carried out according to the following formula (1), which describes zero-order enzyme kinetics: […]
# Here, δ^13C is the difference between the ^13CO2/^12CO2 ratio of the sample and the Pee Dee Belmite (PDB) standard in delta per mil, RPDB is the ^13CO2/^12CO2 ratio of the PDB standard (0.0112375), P is the CO2 production rate (300 mmol/h×surface area of body in m^2), M is the molecular weight of the substrate, and KG is the actual bodyweight of the individual in kg.
# The inundation time is preferably used to assess the microcirculation in the liver, so as to be able to detect microcirculation disturbances. Assuming the quickest possible inundation by in particular intravenous bolus injection and substrate excess and the high first-pass effect of methacetin or another substrate, the hepatic microcirculation can be assessed particularly advantageously. The inundation time needed to reach the maximum reaction rate tvmax is determined, said inundation time lengthening in the presence of microcirculation disturbances, since in this case the substrate inundation is not uniformly or completely delayed in all areas of the liver. Liver perfusion can thus be assessed.
# The rapid substrate inundation required for the enzyme-kinetic evaluation is ensured by the fact that ^13C methacetin is administered intravenously in a bolus. The intravenous bolus injection ensures an immediate and complete substrate inundation in the liver. The absorption of the test substance ^13C-methacetin is no longer the step that determines the reaction rate. With the preferred dose of 2 mg methacetin per kg bodyweight, a temporary enzyme utilization is also permitted in patients with a healthy liver by a short-term substrate excess. This permits the actual quantitative expressiveness, since zero-order enzyme kinetics are achieved, and only this permits a statement concerning the maximum functional capacity of an enzyme system.
# In the context of a prospective study, a method, which is discussed in more detail below, was used to evaluate liver function before and after partial liver resection in a number of patients: • 1. […]
# [2] = cited from earlier work
SMILES,inundation time (tvmax) until maximum reaction rate ([1]; after partial liver resection),inundation time (tvmax) until maximum reaction rate ([1]; before partial liver resection),maximum functional liver capacity (LiMAx) ([1]; post-operative day 1 (POD1) after partial liver resection),maximum functional liver capacity (LiMAx) ([1]; post-operative day 10 (POD10) after partial liver resection),"maximum functional liver capacity (LiMAx) ([1]; pre-operative (before partial liver resection), intravenous 13C-methacetin solution)",solubility ([2]; in water or in an aqueous buffer),stability of aqueous solution (crystallization) ([2]; usually aqueous solution)
COc1ccc(NC(C)=O)cc1 [^13C-methacetin],53.5 ± 7.51 min,11.9 ± 2.17 min,141 ± 13 µg/h/kg,249 ± 17 µg/h/kg,301 ± 24 µg/h/kg,,
COc1ccc(NC(C)=O)cc1 [methacetin],,,,,,extremely sparingly soluble,crystallizes out of a usually aqueous solution within a period of hours to days
